Values of other authors, collected in US20090010894A1, “METHODS AND SYSTEMS FOR IDENTIFYING COMPOUNDS THAT MODULATE ALPHA-SYNUCLEIN AGGREGATION” (The parkinson's Institute, priority 2005, published 2009).

Columns and labels:
α-synuclein = α-synuclein (Homo sapiens, UniProt P37840); settings: aggregated α-synuclein contacted with agent in vitro
[1] = test system: transgenic C. elegans expressing A53T, E46K, or A30P human α-synuclein; settings: exogenous dopamine; transgenic worms expressing mutant human α-synuclein

| SMILES | promotes disaggregation of α-synuclein (α-synuclein) | reversal of failure in food-sensing behavior [1] |
| --- | --- | --- |
| CO[C@H]1/C=C/O[C@@]2(C)Oc3c(C)c(O)c4c(O)c(c(/C=N/N5CCN(C)CC5)c(O)c4c3C2=O)NC(=O)/C(C)=C\C=C\[C@H](C)[C@H](O)[C@@H](C)[C@@H](O)[C@@H](C)[C@H](OC(C)=O)[C@@H]1C [rifampin] | shown to have such an effect | – |
| NCCc1ccc(O)c(O)c1 [dopamine] | – | reversed these effects |
| CO[C@H]1/C=C/O[C@@]2(C)Oc3c(C)c(O)c4c(O)c(cc(O)c4c3C2=O)NC(=O)/C(C)=C\C=C\[C@H](C)[C@H](O)[C@@H](C)[C@@H](O)[C@@H](C)[C@H](OC(C)=O)[C@@H]1C [rifamycin] | shown to have such an effect | – |
